Measured values published in PMC10066365, “Nemacol is a small molecule inhibitor of C. elegans vesicular acetylcholine transporter with anthelmintic potential” (Nature Communications, 2023).
“And” between values parts separate entries of the source, which are not always exact repeats. Identical values can stand only once. Like-named read-outs stand apart in the source and are kept apart here.

How the values were obtained:
[1] = tested on: Dirofilaria immitis L3/L4; assay: Dirofilaria immitis L3/L4 motility assay (DiroImager, 72 h); conditions: Dirofilaria immitis L4
rat VAChT = molecular target: T1, rat VAChT (Rattus norvegicus, UniProt Q62666); assay: [3H]Vesamicol competitive radioligand binding, PC12 cells expressing ratVAChT
T1 construct: expressed in transfected cells; host or cells: rat PC12 (PC12 A123.7) cells, stably transfected; shared by Dr. Ali Roghani (Texas Tech University)
T1 sequence (Q62666 1-530): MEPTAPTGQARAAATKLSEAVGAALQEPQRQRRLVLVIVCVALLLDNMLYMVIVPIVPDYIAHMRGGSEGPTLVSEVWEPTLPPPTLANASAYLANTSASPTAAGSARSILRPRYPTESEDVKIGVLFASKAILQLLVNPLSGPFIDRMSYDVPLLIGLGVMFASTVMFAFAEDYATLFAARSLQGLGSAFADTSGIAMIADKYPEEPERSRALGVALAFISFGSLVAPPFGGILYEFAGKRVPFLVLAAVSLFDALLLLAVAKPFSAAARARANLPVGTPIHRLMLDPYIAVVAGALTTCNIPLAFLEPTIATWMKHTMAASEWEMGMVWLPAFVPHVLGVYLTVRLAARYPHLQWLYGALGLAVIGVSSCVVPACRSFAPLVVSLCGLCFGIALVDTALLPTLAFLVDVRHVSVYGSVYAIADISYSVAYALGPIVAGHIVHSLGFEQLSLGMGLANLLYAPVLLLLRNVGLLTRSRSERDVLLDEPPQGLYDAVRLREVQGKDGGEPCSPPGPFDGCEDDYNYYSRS

Pristionchus pacificus = Pristionchus pacificus motor disruption dose-response on solid media, 1 h; conditions: for mean % any phene (coiled, jerky-Unc or paralyzed): Pristionchus pacificus young adults; for mean % any phene (coiled, jerky-Unc or paralyzed) / mean % any phene: mean of three biological replicates; for EC50: Pristionchus pacificus, 1 h, read-out: P. pacificus motor disruption EC50; for rep 1 atypical locomotion / rep 1 coiled / rep 1 no phene / rep 1 paralyzed / rep 2 atypical locomotion / rep 2 coiled / rep 2 no phene / rep 2 paralyzed / rep 3 atypical locomotion / rep 3 coiled / rep 3 no phene / rep 3 paralyzed: count of 20 animals per trial, one hour; for mean % any phene: any phenotype (coiled, jerky-Unc or paralyzed) at one hour
C. elegans = C. elegans motor phenotype scoring on solid media (Punc/jerky-unc, coiled, paralyzed), wild-type young adults; assay type: in vivo, Caenorhabditis elegans; conditions: for any phene (mean % fraction of young adults exhibiting any phenotype: coiled, jerky-Unc or paralyzed) / atypical locomotion (number of animals) / coiled (number of animals) / no phene (number of animals) / paralyzed (number of animals) / any phene: mean % fraction of young adults exhibiting any phenotype (coiled, jerky-Unc or paralyzed): one hour; for any phene (mean % fraction of young adults exhibiting any phenotype: coiled, jerky-Unc or paralyzed) / any phene: mean % fraction of young adults exhibiting any phenotype (coiled, jerky-Unc or paralyzed): mean of three biological replicates; for EC50: Caenorhabditis elegans, any motor phenotype after 1 h on solid media, ± 95% CI, read-out: C. elegans - motor disruption EC50; for atypical locomotion (number of animals) / coiled (number of animals) / no phene (number of animals) / paralyzed (number of animals): young adults, 20 animals per trial, single technical replicate
[2] = tested on: Dirofilaria immitis microfilariae; assay: Dirofilaria immitis microfilariae immobility assay (DiroImager, 72 h); conditions: Dirofilaria immitis microfilariae
Outline: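 About 250 freshly purified microfilariae of the Missouri isolate per well in supplemented RPMI 1640, exposed to compound for 72 h. Motility scored by automated whole-plate optical imaging; medium with 1% DMSO as negative control.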

[3] = [3H]Vesamicol binding, PC12, experiment 1, read-out: expt 1 Ki (M) vs. rat VAChT (PC12)
[4] = [3H]Vesamicol binding, PC12, experiment 2, read-out: expt 2 Ki (M) vs. rat VAChT (PC12)
[5] = [3H]Vesamicol binding, rat VAChT (PC12), mean of 2-3 experiments, read-out: mean Ki
[6] = conc 3.75, observed at one hour
[7] = 3.75uM, third c14 line of each analog

Cc1ccc(N2CCN(CC3CC4C=CC3C4)CC2)cc1 (stereo not shown) [Nemacol-43]
% effect (motility), DIROIM L4 ([1]; 2 µM): 6%
% effect (motility), DIROIM L4 ([1]; 10 µM): 5%
% effect (motility), DIROIM L4 ([1]; 50 µM): 20%
Ki (rat VAChT; [3]): 1.91e-07 M
Ki (rat VAChT; [4]): 1.26e-07 M
Ki (rat VAChT; [5]): 1.59e-07 M
mean % any phene (coiled, jerky-Unc or paralyzed) (Pristionchus pacificus; [6]): 0%
mean % any phene (coiled, jerky-Unc or paralyzed) (Pristionchus pacificus; conc 15, observed at one hour): 20.8333%
mean % any phene (coiled, jerky-Unc or paralyzed) (Pristionchus pacificus; conc 60, observed at one hour): 76.4035%
EC50 (Pristionchus pacificus): 31500 ± 4900 nM
any phene (mean % fraction of young adults exhibiting any phenotype: coiled, jerky-Unc or paralyzed) (C. elegans; [7]): 33.7698%
any phene (mean % fraction of young adults exhibiting any phenotype: coiled, jerky-Unc or paralyzed) (C. elegans; 15uM, second c14 line of each analog): 100%
any phene (mean % fraction of young adults exhibiting any phenotype: coiled, jerky-Unc or paralyzed) (C. elegans; 60uM, first c14 line of each analog): 100%
EC50 (C. elegans): 3900 nM
% effect (motility), DIROIM MF ([2]; 0.016 µM): 0%
% effect (motility), DIROIM MF ([2]; 0.08 µM): 0%
% effect (motility), DIROIM MF ([2]; 0.4 µM): 0%
% effect (motility), DIROIM MF ([2]; 2 µM): 0%
% effect (motility), DIROIM MF ([2]; 10 µM): 0%

Clc1ccc(N2CCN(CC3CC4C=CC3C4)CC2)cc1 (stereo not shown) [Nemacol-46]
% effect (motility), DIROIM L4 ([1]; 2 µM): 0%
% effect (motility), DIROIM L4 ([1]; 10 µM): 5%
% effect (motility), DIROIM L4 ([1]; 50 µM): 25%
Ki (rat VAChT; [3]): 9.16e-08 M
Ki (rat VAChT; [4]): 7.54e-08 M
Ki (rat VAChT; [5]): 8.35e-08 M
mean % any phene (coiled, jerky-Unc or paralyzed) (Pristionchus pacificus; [6]): 41.6667%
mean % any phene (coiled, jerky-Unc or paralyzed) (Pristionchus pacificus; conc 15, observed at one hour): 58.3333%
mean % any phene (coiled, jerky-Unc or paralyzed) (Pristionchus pacificus; conc 60, observed at one hour): 84.1667%
EC50 (Pristionchus pacificus): 7000 ± 2400 nM
rep 1 atypical locomotion (Pristionchus pacificus; conc 3.75): 0
rep 1 coiled (Pristionchus pacificus; conc 3.75): 0
rep 1 no phene (Pristionchus pacificus; conc 3.75): 20
rep 1 paralyzed (Pristionchus pacificus; conc 3.75): 0
rep 2 atypical locomotion (Pristionchus pacificus; conc 3.75): 4
rep 2 coiled (Pristionchus pacificus; conc 3.75): 0
rep 2 no phene (Pristionchus pacificus; conc 3.75): 16
rep 2 paralyzed (Pristionchus pacificus; conc 3.75): 0
rep 1 atypical locomotion (Pristionchus pacificus; conc 15): 11
rep 1 coiled (Pristionchus pacificus; conc 15): 4
rep 1 no phene (Pristionchus pacificus; conc 15): 4
rep 1 paralyzed (Pristionchus pacificus; conc 15): 1
rep 2 atypical locomotion (Pristionchus pacificus; conc 15): 0
rep 2 coiled (Pristionchus pacificus; conc 15): 8
rep 2 no phene (Pristionchus pacificus; conc 15): 0
rep 2 paralyzed (Pristionchus pacificus; conc 15): 12
rep 1 atypical locomotion (Pristionchus pacificus; conc 60): 4
rep 1 coiled (Pristionchus pacificus; conc 60): 6
rep 1 no phene (Pristionchus pacificus; conc 60): 0
rep 1 paralyzed (Pristionchus pacificus; conc 60): 10
rep 2 atypical locomotion (Pristionchus pacificus; conc 60): 0
rep 2 coiled (Pristionchus pacificus; conc 60): 8
rep 2 no phene (Pristionchus pacificus; conc 60): 0
rep 2 paralyzed (Pristionchus pacificus; conc 60): 12
any phene (mean % fraction of young adults exhibiting any phenotype: coiled, jerky-Unc or paralyzed) (C. elegans; [7]): 89.1667%
EC50 (C. elegans): 2300 nM
% effect (motility), DIROIM MF ([2]; 0.016 µM): 0%
% effect (motility), DIROIM MF ([2]; 0.08 µM): 0%
% effect (motility), DIROIM MF ([2]; 0.4 µM): 0%
% effect (motility), DIROIM MF ([2]; 2 µM): 0%
% effect (motility), DIROIM MF ([2]; 10 µM): 0%

CC1CCC(N2CCN(c3ccccc3)CC2)CC1 (stereo not shown) [Nemacol-50]
% effect (motility), DIROIM L4 ([1]; 2 µM): 0%
% effect (motility), DIROIM L4 ([1]; 10 µM): 0%
% effect (motility), DIROIM L4 ([1]; 50 µM): 5%
Ki (rat VAChT; [3]): 1.82e-06 M
Ki (rat VAChT; [4]): 2.05e-06 M
Ki (rat VAChT; [3H]Vesamicol binding, PC12, third experiment column (date expt 3), read-out: expt 2 Ki (M) vs. rat VAChT (PC12)): 1.95e-06 M
Ki (rat VAChT; [5]): 1.94e-06 M
Ki (rat VAChT; [3H]Vesamicol displacement, mean, read-out: ratVAChT Ki): 1.94e-06 M
EC50 (Pristionchus pacificus): 49200 nM
mean % any phene (Pristionchus pacificus; conc 3.75): 0%
rep 1 atypical locomotion (Pristionchus pacificus; conc 3.75): 0
rep 1 coiled (Pristionchus pacificus; conc 3.75): 0
rep 1 no phene (Pristionchus pacificus; conc 3.75): 20
rep 1 paralyzed (Pristionchus pacificus; conc 3.75): 0
rep 2 atypical locomotion (Pristionchus pacificus; conc 3.75): 0
rep 2 coiled (Pristionchus pacificus; conc 3.75): 0
rep 2 no phene (Pristionchus pacificus; conc 3.75): 20
rep 2 paralyzed (Pristionchus pacificus; conc 3.75): 0
rep 3 atypical locomotion (Pristionchus pacificus; conc 3.75): 0
rep 3 coiled (Pristionchus pacificus; conc 3.75): 0
rep 3 no phene (Pristionchus pacificus; conc 3.75): 20
rep 3 paralyzed (Pristionchus pacificus; conc 3.75): 0
mean % any phene (Pristionchus pacificus; conc 15): 0%
rep 1 atypical locomotion (Pristionchus pacificus; conc 15): 0
rep 1 coiled (Pristionchus pacificus; conc 15): 0
rep 1 no phene (Pristionchus pacificus; conc 15): 20
rep 1 paralyzed (Pristionchus pacificus; conc 15): 0
rep 2 atypical locomotion (Pristionchus pacificus; conc 15): 0
rep 2 coiled (Pristionchus pacificus; conc 15): 0
rep 2 no phene (Pristionchus pacificus; conc 15): 20
rep 2 paralyzed (Pristionchus pacificus; conc 15): 0
rep 3 atypical locomotion (Pristionchus pacificus; conc 15): 0
rep 3 coiled (Pristionchus pacificus; conc 15): 0
rep 3 no phene (Pristionchus pacificus; conc 15): 20
rep 3 paralyzed (Pristionchus pacificus; conc 15): 0
mean % any phene (Pristionchus pacificus; conc 60): 98.3333%
rep 1 atypical locomotion (Pristionchus pacificus; conc 60): 9 and 5
rep 1 coiled (Pristionchus pacificus; conc 60): 4 and 2
rep 1 no phene (Pristionchus pacificus; conc 60): 0
rep 1 paralyzed (Pristionchus pacificus; conc 60): 7 and 13
rep 2 atypical locomotion (Pristionchus pacificus; conc 60): 7 and 10
rep 2 coiled (Pristionchus pacificus; conc 60): 4 and 2
rep 2 no phene (Pristionchus pacificus; conc 60): 0
rep 2 paralyzed (Pristionchus pacificus; conc 60): 9 and 8
rep 3 atypical locomotion (Pristionchus pacificus; conc 60): 11 and 13
rep 3 paralyzed (Pristionchus pacificus; conc 60): 6 and 4
atypical locomotion (number of animals) (C. elegans; 3.75uM): 8 and 14 and 7 and 18 and 16
coiled (number of animals) (C. elegans; 3.75uM): 0 and 1
no phene (number of animals) (C. elegans; 3.75uM): 11 and 5 and 12 and 13 and 2 and 4
paralyzed (number of animals) (C. elegans; 3.75uM): 1 and 0
any phene: mean % fraction of young adults exhibiting any phenotype (coiled, jerky-Unc or paralyzed) (C. elegans; 3.75uM): 60.8333%
atypical locomotion (number of animals) (C. elegans; 15uM): 10 and 12 and 11 and 17 and 7 and 5
coiled (number of animals) (C. elegans; 15uM): 1 and 0 and 7 and 3 and 4
no phene (number of animals) (C. elegans; 15uM): 2 and 0
paralyzed (number of animals) (C. elegans; 15uM): 7 and 8 and 0 and 9 and 12
any phene: mean % fraction of young adults exhibiting any phenotype (coiled, jerky-Unc or paralyzed) (C. elegans; 15uM): 96.6667%
atypical locomotion (number of animals) (C. elegans; 60uM): 1 and 3 and 0 and 6 and 5 and 2
coiled (number of animals) (C. elegans; 60uM): 8 and 11 and 14 and 5 and 6
no phene (number of animals) (C. elegans; 60uM): 1 and 0
paralyzed (number of animals) (C. elegans; 60uM): 10 and 6 and 12
any phene: mean % fraction of young adults exhibiting any phenotype (coiled, jerky-Unc or paralyzed) (C. elegans; 60uM): 99.1667%
EC50 (C. elegans): 3000 ± 1300 nM
% effect (motility), DIROIM MF ([2]; 0.016 µM): 0%
% effect (motility), DIROIM MF ([2]; 0.08 µM): 0%
% effect (motility), DIROIM MF ([2]; 0.4 µM): 0%
% effect (motility), DIROIM MF ([2]; 2 µM): 0%
% effect (motility), DIROIM MF ([2]; 10 µM): 0%
